Results reported in paper PMC11345841, “Exploring 2-Sulfonylpyrimidine Warheads as Acrylamide Surrogates for Targeted Covalent Inhibition: A BTK Story” (Journal of Medicinal Chemistry, 2024).
Read-outs that look alike come from different tables or passages of the source.

Columns and labels:
Assay in all cases: KINOMEscan ScanTK
Format in all cases: binding
[1] = biological target: T1, ABL1(Q252H)-phosphorylated (Homo sapiens, UniProt P00519, Q252H)
T1 construct: purchased Eurofins DiscoverX KINOMEscan (scanTK)

CTK = biological target: T2, CTK (Homo sapiens, UniProt P42679)
T2 construct: purchased Eurofins DiscoverX KINOMEscan (scanTK)
T2 sequence (P42679 1-507): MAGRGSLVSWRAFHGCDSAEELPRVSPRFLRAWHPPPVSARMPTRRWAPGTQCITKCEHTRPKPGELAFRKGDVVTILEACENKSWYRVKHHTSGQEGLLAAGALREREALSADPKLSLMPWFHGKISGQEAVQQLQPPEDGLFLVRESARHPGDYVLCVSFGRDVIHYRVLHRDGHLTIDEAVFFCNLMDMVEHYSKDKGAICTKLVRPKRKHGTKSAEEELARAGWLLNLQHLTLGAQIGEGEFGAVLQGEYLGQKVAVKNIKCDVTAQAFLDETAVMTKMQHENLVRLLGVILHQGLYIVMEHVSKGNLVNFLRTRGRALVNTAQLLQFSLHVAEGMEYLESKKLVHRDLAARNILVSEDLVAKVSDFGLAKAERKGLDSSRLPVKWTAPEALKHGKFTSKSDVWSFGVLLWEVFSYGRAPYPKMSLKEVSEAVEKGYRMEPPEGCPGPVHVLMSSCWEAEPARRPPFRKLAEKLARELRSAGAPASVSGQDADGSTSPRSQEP

EPHB2 = biological target: T3, EPHB2 (Homo sapiens, UniProt P29323)
T3 construct: purchased Eurofins DiscoverX KINOMEscan (scanTK)
T3 sequence (P29323 19-1055): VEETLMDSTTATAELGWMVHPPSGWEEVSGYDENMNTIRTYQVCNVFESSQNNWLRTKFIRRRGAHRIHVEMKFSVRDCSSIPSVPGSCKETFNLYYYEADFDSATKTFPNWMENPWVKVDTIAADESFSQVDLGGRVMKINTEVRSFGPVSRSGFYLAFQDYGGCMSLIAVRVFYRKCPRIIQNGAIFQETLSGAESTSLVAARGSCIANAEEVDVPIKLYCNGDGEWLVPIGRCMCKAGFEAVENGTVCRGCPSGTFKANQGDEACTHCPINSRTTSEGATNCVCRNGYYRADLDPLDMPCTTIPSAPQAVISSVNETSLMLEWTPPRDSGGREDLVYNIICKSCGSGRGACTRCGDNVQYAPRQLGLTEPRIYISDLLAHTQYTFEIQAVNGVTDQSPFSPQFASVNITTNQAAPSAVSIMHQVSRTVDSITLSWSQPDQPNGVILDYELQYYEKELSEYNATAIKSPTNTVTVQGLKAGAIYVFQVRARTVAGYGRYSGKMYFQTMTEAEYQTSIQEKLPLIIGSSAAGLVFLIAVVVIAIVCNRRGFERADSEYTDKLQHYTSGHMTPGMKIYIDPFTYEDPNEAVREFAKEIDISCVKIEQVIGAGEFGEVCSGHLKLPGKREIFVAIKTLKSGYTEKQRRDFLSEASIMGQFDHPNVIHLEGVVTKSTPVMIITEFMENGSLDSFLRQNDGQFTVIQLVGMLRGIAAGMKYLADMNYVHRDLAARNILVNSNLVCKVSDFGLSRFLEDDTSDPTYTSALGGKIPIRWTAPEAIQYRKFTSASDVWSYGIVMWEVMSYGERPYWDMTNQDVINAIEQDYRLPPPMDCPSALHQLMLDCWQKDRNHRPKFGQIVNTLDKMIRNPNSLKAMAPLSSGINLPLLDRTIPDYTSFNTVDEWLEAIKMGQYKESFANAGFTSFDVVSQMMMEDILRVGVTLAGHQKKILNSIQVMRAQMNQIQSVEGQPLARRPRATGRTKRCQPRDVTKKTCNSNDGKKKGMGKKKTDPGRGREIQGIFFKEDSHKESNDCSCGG

FGFR3(G697C) = biological target: T4, FGFR3(G697C) (Homo sapiens, UniProt P22607, G697C)
T4 construct: purchased Eurofins DiscoverX KINOMEscan (scanTK)

KIT(D816H) = biological target: T5, KIT(D816H) (Homo sapiens, UniProt P10721, D816H)
T5 construct: purchased Eurofins DiscoverX KINOMEscan (scanTK)

KIT(D816V) = biological target: T6, KIT(D816V) (Homo sapiens, UniProt P10721, D816V)
T6 construct: purchased Eurofins DiscoverX KINOMEscan (scanTK)

KIT(L576P) = biological target: T7, KIT(L576P) (Homo sapiens, UniProt P10721, L576P)
T7 construct: purchased Eurofins DiscoverX KINOMEscan (scanTK)

KIT(V559D,T670I) = biological target: T8, KIT(V559D,T670I) (Homo sapiens, UniProt P10721, T670I/V559D)
T8 construct: purchased Eurofins DiscoverX KINOMEscan (scanTK)

PYK2 = biological target: T9, PYK2 (Homo sapiens, UniProt Q14289)
T9 construct: purchased Eurofins DiscoverX KINOMEscan (scanTK)

TNK1 = biological target: T10, TNK1 (Homo sapiens, UniProt Q13470)
T10 construct: purchased Eurofins DiscoverX KINOMEscan (scanTK)
T10 sequence (Q13470 1-666): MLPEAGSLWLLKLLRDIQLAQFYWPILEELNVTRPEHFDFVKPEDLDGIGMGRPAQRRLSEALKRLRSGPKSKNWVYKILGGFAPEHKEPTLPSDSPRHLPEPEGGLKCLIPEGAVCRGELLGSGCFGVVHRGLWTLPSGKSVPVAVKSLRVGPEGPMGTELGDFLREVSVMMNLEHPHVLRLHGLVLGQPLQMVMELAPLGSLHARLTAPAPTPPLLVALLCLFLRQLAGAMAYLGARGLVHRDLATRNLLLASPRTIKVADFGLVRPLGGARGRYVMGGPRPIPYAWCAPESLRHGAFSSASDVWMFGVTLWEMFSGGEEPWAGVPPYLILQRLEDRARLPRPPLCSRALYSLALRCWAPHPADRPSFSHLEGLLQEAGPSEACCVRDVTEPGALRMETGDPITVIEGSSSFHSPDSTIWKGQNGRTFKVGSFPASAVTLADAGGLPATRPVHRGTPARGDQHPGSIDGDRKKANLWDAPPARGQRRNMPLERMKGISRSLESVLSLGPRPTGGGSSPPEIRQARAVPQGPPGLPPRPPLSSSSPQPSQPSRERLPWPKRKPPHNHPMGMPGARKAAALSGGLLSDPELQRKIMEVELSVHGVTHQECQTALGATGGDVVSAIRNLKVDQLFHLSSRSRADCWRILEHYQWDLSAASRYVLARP

[2] = @1000nM, read-out: % difference (compound - Ib %Control)

T7 sequence (P10721 26-976 L576P): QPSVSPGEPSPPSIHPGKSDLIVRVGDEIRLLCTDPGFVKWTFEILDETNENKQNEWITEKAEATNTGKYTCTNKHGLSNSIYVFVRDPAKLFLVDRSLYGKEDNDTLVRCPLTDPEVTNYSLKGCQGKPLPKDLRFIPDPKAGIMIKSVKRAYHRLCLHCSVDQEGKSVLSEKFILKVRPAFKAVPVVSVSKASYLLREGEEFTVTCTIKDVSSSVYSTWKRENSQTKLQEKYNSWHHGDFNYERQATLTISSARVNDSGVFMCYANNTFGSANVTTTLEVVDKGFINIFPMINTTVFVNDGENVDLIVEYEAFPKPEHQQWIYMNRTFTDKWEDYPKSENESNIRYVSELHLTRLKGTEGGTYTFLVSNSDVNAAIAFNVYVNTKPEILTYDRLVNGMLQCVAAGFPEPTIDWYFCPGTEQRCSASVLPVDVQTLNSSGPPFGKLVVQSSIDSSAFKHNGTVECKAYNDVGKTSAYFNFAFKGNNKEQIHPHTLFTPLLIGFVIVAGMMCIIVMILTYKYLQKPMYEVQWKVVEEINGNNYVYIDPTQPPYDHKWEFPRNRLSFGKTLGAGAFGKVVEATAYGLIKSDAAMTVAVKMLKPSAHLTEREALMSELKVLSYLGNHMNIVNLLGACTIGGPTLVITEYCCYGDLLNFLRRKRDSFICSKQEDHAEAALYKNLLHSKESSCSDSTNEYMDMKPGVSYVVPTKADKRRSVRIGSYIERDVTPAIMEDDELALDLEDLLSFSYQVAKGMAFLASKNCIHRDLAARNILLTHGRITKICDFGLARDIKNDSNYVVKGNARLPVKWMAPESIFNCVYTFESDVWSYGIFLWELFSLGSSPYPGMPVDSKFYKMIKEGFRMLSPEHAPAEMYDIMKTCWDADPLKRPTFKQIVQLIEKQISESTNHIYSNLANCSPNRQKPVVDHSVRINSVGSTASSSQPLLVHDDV
T8 sequence (P10721 26-976 V559D/T670I): as the sequence (P10721 26-976 L576P) above, with V534D, P551L, T645I counted along it
T4 sequence (P22607 23-806 G697C): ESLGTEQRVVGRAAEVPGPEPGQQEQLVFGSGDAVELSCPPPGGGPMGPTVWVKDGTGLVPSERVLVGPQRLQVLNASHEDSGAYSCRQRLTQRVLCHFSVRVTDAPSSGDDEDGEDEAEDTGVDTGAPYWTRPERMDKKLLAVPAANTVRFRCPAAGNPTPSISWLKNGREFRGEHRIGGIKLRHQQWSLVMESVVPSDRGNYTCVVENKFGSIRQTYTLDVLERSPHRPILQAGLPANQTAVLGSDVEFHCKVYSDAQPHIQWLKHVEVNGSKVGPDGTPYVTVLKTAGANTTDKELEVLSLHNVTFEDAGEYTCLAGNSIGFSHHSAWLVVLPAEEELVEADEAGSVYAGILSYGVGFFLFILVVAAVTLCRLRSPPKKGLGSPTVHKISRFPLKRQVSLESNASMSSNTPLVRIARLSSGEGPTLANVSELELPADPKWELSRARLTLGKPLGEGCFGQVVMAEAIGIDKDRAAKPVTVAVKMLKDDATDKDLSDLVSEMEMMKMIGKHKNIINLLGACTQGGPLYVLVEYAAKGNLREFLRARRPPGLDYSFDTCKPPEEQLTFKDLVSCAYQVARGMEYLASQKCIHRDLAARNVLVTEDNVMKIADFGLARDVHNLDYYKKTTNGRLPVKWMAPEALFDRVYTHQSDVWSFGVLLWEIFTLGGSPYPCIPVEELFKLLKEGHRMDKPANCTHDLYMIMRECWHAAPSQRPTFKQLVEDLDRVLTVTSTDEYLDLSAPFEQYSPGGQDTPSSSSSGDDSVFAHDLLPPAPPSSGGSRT
T9 sequence (Q14289 whole entry): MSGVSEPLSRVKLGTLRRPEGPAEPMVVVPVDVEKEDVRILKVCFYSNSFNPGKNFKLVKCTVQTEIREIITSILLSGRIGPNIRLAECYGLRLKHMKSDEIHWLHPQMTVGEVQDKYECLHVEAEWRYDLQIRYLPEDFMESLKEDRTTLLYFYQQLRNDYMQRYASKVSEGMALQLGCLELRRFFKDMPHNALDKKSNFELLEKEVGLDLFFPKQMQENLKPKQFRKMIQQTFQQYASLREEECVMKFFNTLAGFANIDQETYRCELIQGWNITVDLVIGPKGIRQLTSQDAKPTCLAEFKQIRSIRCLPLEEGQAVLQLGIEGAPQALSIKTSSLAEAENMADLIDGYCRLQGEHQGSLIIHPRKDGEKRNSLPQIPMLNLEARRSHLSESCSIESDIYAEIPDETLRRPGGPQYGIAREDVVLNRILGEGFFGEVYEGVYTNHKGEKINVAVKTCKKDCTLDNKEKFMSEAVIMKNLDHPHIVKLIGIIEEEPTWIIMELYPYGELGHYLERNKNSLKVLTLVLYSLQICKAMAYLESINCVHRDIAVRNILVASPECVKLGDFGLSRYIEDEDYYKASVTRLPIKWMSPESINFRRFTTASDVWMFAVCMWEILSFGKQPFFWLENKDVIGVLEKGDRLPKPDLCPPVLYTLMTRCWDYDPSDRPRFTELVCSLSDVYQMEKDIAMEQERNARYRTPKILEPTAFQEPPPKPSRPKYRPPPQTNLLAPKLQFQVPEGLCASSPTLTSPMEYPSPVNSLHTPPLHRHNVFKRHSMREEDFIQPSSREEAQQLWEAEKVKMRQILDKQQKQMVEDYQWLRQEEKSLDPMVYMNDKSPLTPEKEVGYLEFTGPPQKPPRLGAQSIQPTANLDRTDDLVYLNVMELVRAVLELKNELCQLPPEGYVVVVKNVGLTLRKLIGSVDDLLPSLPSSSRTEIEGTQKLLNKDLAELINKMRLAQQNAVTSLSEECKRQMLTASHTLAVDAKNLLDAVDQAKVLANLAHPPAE
T6 sequence (P10721 26-976 D816V): as the sequence (P10721 26-976 L576P) above, with P551L, D791V counted along it
T5 sequence (P10721 26-976 D816H): as the sequence (P10721 26-976 L576P) above, with P551L, D791H counted along it

CNC(=O)c1cnc(S(C)(=O)=O)nc1N1CCCC(n2nc(-c3ccc(Oc4ccccc4)cc3)c3c(N)ncnc32)C1 (centres unmarked) [Compound 8d, 4-(3-(4-Amino-3-(4-phenoxyphenyl)-1H-pyrazolo[3,4-d]pyrimidin-1-yl)piperidin-1-yl)-N-methyl-2-(methylsulfonyl)pyrimidine-5-carboxamide]
difference in %Control versus reference Ib at 1 µM [1, 2]: -1% | remaining binding at 1 µM ([1]; @1000nM, read-out: %Control): 93% | remaining binding at 1 µM ([1]; read-out: %Control @1000nM): 93% | difference in %Control versus compound Ib at 1 µM (CTK; @1000nM): -3% | remaining binding at 1 µM (CTK; @1000nM, read-out: %Control): 77% | remaining binding at 1 µM (CTK; read-out: %Control @1000nM): 77% | %Control difference from compound Ib at 1 µM (EPHB2; @1000nM): -1% | remaining binding at 1 µM (EPHB2; @1000nM, read-out: %Control): 99% | remaining binding at 1 µM (EPHB2; read-out: %Control @1000nM): 99% | difference in %Control versus compound Ib at 1 µM (FGFR3(G697C); @1000nM): 47% | remaining binding at 1 µM (FGFR3(G697C); @1000nM, read-out: %Control): 87% | remaining binding at 1 µM (FGFR3(G697C); read-out: %Control @1000nM): 87% | remaining binding at 1 µM (KIT(D816H); @1000nM, read-out: %Control): 50% | remaining binding at 1 µM (KIT(D816H); read-out: %Control @1000nM): 50% | remaining binding at 1 µM (KIT(D816V); @1000nM, read-out: %Control): 84% | remaining binding at 1 µM (KIT(D816V); read-out: %Control @1000nM): 84% | difference in %Control versus Ib at 1 µM (KIT(L576P); [2]): 13% | remaining binding at 1 µM (KIT(L576P); @1000nM, read-out: %Control): 45% | remaining binding at 1 µM (KIT(L576P); read-out: %Control @1000nM): 45% | difference in %Control versus compound Ib at 1 µM (KIT(V559D,T670I); @1000nM): 11% | remaining binding at 1 µM (KIT(V559D,T670I); @1000nM, read-out: %Control): 79% | remaining binding at 1 µM (KIT(V559D,T670I); read-out: %Control @1000nM): 79% | remaining binding at 1 µM (PYK2; @1000nM, read-out: %Control): 100% | remaining binding at 1 µM (PYK2; read-out: %Control @1000nM): 100% | remaining binding at 1 µM (TNK1; @1000nM, read-out: %Control): 97% | remaining binding at 1 µM (TNK1; read-out: %Control @1000nM): 97%
